Measured values published in patent US12485263B2, “Device for delivering an antimicrobial composition into a medical device” (ICU Medical, Inc., priority 2018, dated 2025).

Legend:
[1] = tested on: Gram positive bacteria, Gram negative bacteria, and fungi; assay: Kill of microbes by dissolved chlorhexidine / chlorhexidine acetate (stated, no test protocol)
[2] = 60 kilogram person; cited from earlier work

CC(=O)O.CC(=O)O.NC(=N\CCCCCC/N=C(N)/N=C(\N)Nc1ccc(Cl)cc1)/N=C(\N)Nc1ccc(Cl)cc1 [chlorhexidine acetate]
concentration that can quickly kill most microbes ([1]; Gram positive bacteria, Gram negative bacteria, and fungi): greater than 200 μg/mL
time to kill microbes ([1]; at concentration greater than 200 μg/mL, in many cases): under 1 minute
dose considered safe for direct injection into bloodstream [2]: ≥ 500 µg
